Data reported in ChEMBL document CHEMBL1909046, “DrugMatrix in vitro pharmacology data”.

Columns and labels:
[1] = target: T1, Muscarinic acetylcholine receptor M2 (Homo sapiens, UniProt P08172); assay type: cell membranes, CHO-K1, Membrane
T1 sequence (P08172 whole entry): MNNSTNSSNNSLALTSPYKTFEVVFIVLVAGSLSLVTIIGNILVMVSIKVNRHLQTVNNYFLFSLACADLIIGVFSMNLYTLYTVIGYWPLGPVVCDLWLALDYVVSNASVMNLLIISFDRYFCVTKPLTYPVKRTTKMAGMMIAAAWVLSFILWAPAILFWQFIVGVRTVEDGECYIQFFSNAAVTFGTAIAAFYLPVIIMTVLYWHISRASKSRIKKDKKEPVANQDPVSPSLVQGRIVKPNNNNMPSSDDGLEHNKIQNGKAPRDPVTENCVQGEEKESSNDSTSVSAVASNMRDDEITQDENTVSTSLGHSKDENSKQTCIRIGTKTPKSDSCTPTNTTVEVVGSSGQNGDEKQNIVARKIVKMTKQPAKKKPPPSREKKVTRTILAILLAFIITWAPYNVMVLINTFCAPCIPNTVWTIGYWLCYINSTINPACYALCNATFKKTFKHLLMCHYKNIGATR

Cytochrome P450 2C19 = Cytochrome P450 2C19 (Homo sapiens, UniProt P33261)
Cytochrome P450 2C9 = Cytochrome P450 2C9 (Homo sapiens, UniProt P11712)
Androgen receptor [2] = target: T2, Androgen receptor (Rattus norvegicus, UniProt P15207)
T2 sequence (P15207 whole entry): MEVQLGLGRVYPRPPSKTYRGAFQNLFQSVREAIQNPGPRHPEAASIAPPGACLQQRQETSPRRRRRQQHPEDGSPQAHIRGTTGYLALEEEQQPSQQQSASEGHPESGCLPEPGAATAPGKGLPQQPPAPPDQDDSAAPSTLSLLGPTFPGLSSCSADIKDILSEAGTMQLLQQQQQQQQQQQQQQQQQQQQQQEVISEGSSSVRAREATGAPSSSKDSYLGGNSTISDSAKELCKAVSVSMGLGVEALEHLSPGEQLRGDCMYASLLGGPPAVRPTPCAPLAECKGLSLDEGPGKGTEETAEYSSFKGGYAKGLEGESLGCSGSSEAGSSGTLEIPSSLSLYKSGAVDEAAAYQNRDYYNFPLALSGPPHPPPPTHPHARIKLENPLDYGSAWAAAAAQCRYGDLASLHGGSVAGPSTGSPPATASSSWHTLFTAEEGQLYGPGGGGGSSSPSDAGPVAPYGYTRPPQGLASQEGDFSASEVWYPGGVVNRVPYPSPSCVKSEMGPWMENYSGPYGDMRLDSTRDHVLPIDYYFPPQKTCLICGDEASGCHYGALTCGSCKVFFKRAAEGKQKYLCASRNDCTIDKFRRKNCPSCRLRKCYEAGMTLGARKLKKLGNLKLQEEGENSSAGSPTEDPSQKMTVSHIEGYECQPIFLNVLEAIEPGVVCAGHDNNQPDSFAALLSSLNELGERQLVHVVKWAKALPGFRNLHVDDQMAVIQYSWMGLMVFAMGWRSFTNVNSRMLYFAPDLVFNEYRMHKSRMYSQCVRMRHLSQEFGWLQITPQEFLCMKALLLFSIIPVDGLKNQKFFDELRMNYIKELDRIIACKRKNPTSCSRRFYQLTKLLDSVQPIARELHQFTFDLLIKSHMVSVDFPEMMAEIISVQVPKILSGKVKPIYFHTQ

Cytochrome P450 2A6 = target: T3, Cytochrome P450 2A6 (Homo sapiens, UniProt P11509); details: bti-tn-5b1-4
T3 sequence (P11509 whole entry): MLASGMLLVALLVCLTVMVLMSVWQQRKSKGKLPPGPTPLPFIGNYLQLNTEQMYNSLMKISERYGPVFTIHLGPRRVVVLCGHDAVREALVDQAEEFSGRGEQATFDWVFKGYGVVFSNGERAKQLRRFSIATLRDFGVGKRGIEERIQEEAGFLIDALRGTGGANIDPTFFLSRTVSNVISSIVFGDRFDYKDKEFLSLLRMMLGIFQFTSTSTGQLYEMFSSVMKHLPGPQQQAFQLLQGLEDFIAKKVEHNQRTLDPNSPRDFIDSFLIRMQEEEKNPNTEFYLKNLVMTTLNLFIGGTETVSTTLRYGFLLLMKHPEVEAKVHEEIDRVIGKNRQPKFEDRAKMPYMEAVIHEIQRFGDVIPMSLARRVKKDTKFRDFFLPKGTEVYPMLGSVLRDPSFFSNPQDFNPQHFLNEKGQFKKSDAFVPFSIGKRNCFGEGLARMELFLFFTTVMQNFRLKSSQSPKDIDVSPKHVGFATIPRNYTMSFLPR

Androgen receptor [3] = target: T2, Androgen receptor; remark: listed apart in the source
Cytochrome P450 2D6 = Cytochrome P450 2D6 (Homo sapiens, UniProt P10635)
Cytochrome P450 2E1 = Cytochrome P450 2E1 (Homo sapiens, UniProt P05181)
Note: in other assays of this panel Not Active means under 50% inhibition at 10 µM.

Cytochrome P450 2D6, sequence (P10635 whole entry): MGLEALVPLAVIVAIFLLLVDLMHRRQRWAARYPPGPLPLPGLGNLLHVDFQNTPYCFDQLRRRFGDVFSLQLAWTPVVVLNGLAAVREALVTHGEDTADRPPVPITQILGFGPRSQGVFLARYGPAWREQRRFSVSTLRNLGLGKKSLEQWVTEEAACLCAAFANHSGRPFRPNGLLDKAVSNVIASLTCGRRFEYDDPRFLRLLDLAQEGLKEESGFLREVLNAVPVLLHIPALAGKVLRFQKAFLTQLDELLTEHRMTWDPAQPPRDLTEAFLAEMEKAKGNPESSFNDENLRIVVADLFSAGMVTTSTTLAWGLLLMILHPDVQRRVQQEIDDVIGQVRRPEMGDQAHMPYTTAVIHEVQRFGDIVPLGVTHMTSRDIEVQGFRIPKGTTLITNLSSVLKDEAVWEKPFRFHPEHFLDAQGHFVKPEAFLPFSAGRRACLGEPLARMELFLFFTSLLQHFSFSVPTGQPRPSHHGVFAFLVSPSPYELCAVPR
Cytochrome P450 2C9, sequence (P11712 whole entry): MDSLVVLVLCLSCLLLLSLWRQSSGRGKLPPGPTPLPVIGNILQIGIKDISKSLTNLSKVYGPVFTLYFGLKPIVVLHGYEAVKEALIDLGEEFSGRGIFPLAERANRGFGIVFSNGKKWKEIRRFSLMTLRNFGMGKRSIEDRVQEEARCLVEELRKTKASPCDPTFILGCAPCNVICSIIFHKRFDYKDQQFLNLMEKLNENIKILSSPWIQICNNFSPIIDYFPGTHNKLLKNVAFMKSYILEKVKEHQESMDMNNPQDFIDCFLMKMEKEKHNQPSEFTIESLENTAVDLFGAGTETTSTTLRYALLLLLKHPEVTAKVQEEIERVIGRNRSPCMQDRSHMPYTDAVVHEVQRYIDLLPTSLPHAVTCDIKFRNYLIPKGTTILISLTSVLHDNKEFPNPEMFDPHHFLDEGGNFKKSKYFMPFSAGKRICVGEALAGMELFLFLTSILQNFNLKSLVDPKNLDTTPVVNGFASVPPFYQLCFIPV
Cytochrome P450 2C19, sequence (P33261 whole entry): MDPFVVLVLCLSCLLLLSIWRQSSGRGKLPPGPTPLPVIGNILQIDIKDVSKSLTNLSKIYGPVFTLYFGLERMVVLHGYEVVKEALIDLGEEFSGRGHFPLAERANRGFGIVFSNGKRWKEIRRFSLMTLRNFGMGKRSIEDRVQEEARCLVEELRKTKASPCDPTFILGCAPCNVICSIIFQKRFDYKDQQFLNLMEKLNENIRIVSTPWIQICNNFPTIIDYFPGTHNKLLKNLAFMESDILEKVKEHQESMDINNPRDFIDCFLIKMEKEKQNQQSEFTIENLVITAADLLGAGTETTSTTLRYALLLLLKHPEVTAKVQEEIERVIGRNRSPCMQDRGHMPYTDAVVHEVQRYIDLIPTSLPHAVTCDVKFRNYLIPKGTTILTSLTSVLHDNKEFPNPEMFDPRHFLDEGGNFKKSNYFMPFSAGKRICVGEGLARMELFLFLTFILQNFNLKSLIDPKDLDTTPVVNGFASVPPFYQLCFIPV
Cytochrome P450 2E1, sequence (P05181 whole entry): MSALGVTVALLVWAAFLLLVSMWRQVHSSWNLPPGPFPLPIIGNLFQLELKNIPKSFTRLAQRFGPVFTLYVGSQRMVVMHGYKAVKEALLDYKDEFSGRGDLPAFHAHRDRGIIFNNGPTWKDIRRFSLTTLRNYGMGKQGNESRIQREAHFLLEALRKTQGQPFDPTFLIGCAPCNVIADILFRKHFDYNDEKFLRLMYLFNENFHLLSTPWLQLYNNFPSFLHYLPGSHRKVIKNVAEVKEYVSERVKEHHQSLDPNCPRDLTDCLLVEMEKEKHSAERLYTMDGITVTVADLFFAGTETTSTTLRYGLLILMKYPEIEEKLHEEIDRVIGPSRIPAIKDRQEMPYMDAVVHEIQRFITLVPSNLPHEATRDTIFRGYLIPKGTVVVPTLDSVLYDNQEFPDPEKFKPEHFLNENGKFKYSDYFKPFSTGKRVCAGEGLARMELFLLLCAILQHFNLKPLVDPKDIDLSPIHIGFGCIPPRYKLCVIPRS

Compound	IC50 ([1]; cho-k1)	IC50 (Cytochrome P450 2C19) [µM]	IC50 (Cytochrome P450 2C9) [µM]	IC50 (Androgen receptor [2])	IC50 (Cytochrome P450 2A6)	Ki (Cytochrome P450 2A6)	IC50 (Androgen receptor [3]) [µM]	Ki (Androgen receptor [3]) [µM]	IC50 (Cytochrome P450 2D6) [µM]	IC50 (Cytochrome P450 2E1) [µM]	IC50 ([1]; read-out: IC50) [µM]	Ki ([1]; read-out: Ki) [µM]
O=C(c1ccccc1F)N1CCC(Cc2ccccc2)CC1	Not Active	0.5	2	Not Active	Not Active	Not Active						
CC(O)COC[C@H]1O[C@@H]2O[C@H]3[C@H](O)[C@@H](O)[C@@H](O[C@H]4[C@H](O)[C@@H](O)[C@@H](O[C@H]5[C@H](O)[C@@H](O)[C@@H](O[C@H]6[C@H](O)[C@@H](O)[C@@H](O[C@H]7[C@H](O)[C@@H](O)[C@@H](O[C@H]8[C@H](O)[C@@H](O)[C@@H](O[C@H]1[C@H](O)[C@H]2O)O[C@@H]8COCC(C)O)O[C@@H]7COCC(C)O)O[C@@H]6COCC(C)O)O[C@@H]5COCC(C)O)O[C@@H]4COCC(C)O)O[C@@H]3COCC(C)O (stereo partly drawn) [2-HYDROXYPROPYL-BETA-CYCLODEXTRIN]	Not Active				Not Active	Not Active	2.16	1.44				
CC[C@H]1[C@@H]2C[C@H]3[C@@H]4N(C)c5ccccc5[C@]45C[C@@H]([C@@H]2[C@H]5O)N3[C@@H]1O [AJMALINE]	Not Active				Not Active	Not Active			1			
ClC(Cl)(Cl)Cl [CARBON TETRACHLORIDE]	Not Active				Not Active	Not Active				11		
CN1CCN(C(c2ccccc2)c2ccccc2)CC1 [CYCLIZINE]				Not Active	Not Active	Not Active			6.22		1.16	0.412
COc1ccc2c(c1OC)C(=O)O[C@@H]2[C@H]1c2c(cc3c(c2OC)OCO3)CCN1C [NOSCAPINE]	Not Active	0.4	8.18		Not Active	Not Active						
NNCCc1ccccc1 [PHENELZINE]	Not Active	0.8	4		Not Active	Not Active			1			
